# Assay results from patent US9120756B2, “Substituted phenylureas and phenylamides as vanilloid receptor ligands” (Gruenenthal GmbH, priority 2009, dated 2015).
# What was measured:
# Type in all cases: cell-based
# [1] = target: T1, hVR1 (Homo sapiens (Human), UniProt Q8NER1); experiment: FLIPR assay hVR1, after pH stimulus; set-up: key to IC50 (human being) hVR1 pH: result in words (NE / AG): AG=agonist; pAG=partial agonist; NE=no effect; details: for inhibition at 10 µM: read-out: IC50 (human being) hVR1 pH: inhibition (as a percentage) @ 10 μM, inhibition determined at 10 μM
# T1 sequence (Q8NER1 whole entry): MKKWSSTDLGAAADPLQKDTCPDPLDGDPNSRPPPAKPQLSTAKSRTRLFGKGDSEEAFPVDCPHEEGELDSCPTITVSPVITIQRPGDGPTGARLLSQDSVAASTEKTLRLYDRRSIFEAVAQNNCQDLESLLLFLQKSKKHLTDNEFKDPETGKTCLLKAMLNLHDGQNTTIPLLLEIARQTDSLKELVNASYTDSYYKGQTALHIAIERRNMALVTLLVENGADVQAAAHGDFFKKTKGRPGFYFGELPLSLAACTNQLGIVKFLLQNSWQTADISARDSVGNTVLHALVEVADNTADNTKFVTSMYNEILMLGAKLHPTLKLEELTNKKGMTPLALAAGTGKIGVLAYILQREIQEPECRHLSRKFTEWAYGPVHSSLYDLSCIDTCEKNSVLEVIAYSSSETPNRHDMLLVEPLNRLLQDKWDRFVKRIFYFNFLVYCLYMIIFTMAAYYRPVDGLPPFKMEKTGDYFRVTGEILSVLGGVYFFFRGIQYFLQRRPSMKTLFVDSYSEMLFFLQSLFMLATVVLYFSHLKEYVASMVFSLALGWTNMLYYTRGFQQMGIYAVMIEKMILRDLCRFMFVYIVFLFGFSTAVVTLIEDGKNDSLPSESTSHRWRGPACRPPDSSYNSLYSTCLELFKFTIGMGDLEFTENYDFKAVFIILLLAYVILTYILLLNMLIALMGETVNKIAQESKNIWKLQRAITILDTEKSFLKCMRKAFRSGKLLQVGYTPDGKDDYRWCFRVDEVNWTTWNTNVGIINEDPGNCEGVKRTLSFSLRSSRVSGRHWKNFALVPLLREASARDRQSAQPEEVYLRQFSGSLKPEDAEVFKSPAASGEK
# Description: In this assay, the influx of Ca^2+ through the channel is quantified with the aid of a Ca^2+-sensitive dye (type Fluo-4, Molecular Probes Europe BV, Leiden, the Netherlands) in a fluorescent imaging plate reader (FLIPR, Molecular Devices, Sunnyvale, USA). Chinese hamster ovary cells (CHO K1 cells, European Collection of Cell Cultures (ECACC) United Kingdom) are stably transfected with the VR1 gene. For functional testing, these cells are plated out on poly-D-lysine-coated black 96-well plates having a clear base (BD Biosciences, Heidelberg, Germany) at a density of 25,000 cells/well. […] Subsequently, the plates are washed three times with HBSS buffer and after further incubation for 15 minutes at RT used for Ca^2+ measurement in a FLIPR assay. […] Quantification is carried out by measuring the highest fluorescence intensity (FC, fluorescence counts) over time. The FLIPR protocol consists of 2 substance additions. […] Desensitising agonists and antagonists led to suppression of the Ca^2+ influx. […] Ki values for the test substances were obtained by conversion by means of the Cheng-Prusoff equation (Cheng, Prusoff; Biochem. Pharmacol. 22, 3099-3108, 1973).
# [2] = target: T1, hVR1; experiment: FLIPR Ca2+ influx assay on CHO K1 cells transfected with the VR1 gene, capsaicin stimulus (method II); set-up: key to Ki (human being) Cap: result in words (NE / AG): AG=agonist; pAG=partial agonist; NE=no effect; details: for Ki: capsaicin (Cap), read-out: Ki (human being) [nM] Cap; for Ki (human being) Cap: result in words (NE / AG): capsaicin
# Source text: In the process, the Ca^2+ influx is quantified in the FLIPR assay with the aid of a Ca^2+-sensitive dye (type Fluo-4, Molecular Probes Europe BV, Leiden, the Netherlands) in a fluorescent imaging plate reader (FLIPR, Molecular Devices, Sunnyvale, USA), as described hereinafter.
# The agonistic or antagonistic effect of the substances to be tested on the vanilloid receptor 1 (VR1) can also be determined using the following assay. In this assay, the influx of Ca^2+ through the channel is quantified with the aid of a Ca^2+-sensitive dye (type Fluo-4, Molecular Probes Europe BV, Leiden, the Netherlands) in a fluorescent imaging plate reader (FLIPR, Molecular Devices, Sunnyvale, USA).
# Chinese hamster ovary cells (CHO K1 cells, European Collection of Cell Cultures (ECACC) United Kingdom) are stably transfected with the VR1 gene. For functional testing, these cells are plated out on poly-D-lysine-coated black 96-well plates having a clear base (BD Biosciences, Heidelberg, Germany) at a density of 25,000 cells/well. The cells are incubated overnight at 37° C. and 5% CO2 in a culture medium (Ham's F12 nutrient mixture, 10% by volume of FCS (foetal calf serum), 18 μg/ml of L-proline). The next day the cells are incubated with Fluo-4 (Fluo-4 2 μM, 0.01% by volume of Pluronic F127, Molecular Probes in HBSS (Hank's buffered saline solution), Gibco Invitrogen GmbH, Karlsruhe, Germany) for 30 minutes at 37° C. Subsequently, the plates are washed three times with HBSS buffer and after further incubation for 15 minutes at RT used for Ca^2+ measurement in a FLIPR assay. The Ca^2+-dependent fluorescence is measured before and after the addition of the substances to be tested (λex wavelength=488 nm, λem=540 nm). Quantification is carried out by measuring the highest fluorescence intensity (FC, fluorescence counts) over time.
# The FLIPR protocol consists of 2 substance additions. First the compounds to be tested (10 μM) are pipetted onto the cells and the Ca^2+ influx is compared with the control (capsaicin 10 μM) (% activation based on the Ca^2+ signal after the addition of 10 μM of capsaicin). After 5 minutes' incubation, 100 nM of capsaicin are applied and the Ca^2+ influx is also determined.
# Desensitising agonists and antagonists led to suppression of the Ca^2+ influx.
# Starting from the percentage displacement caused by different concentrations of the compounds to be tested of general formula I, IC50 inhibitory concentrations which cause a 50-percent displacement of capsaicin were calculated. Ki values for the test substances were obtained by conversion by means of the Cheng-Prusoff equation (Cheng, Prusoff; Biochem. Pharmacol. 22, 3099-3108, 1973).
# [3] = target: rat-species vanilloid receptor 1 (VR1/TRPV1) (Rattus norvegicus (Rat), UniProt O35433); experiment: FLIPR Ca2+ influx assay on rat dorsal root ganglia cells, capsaicin stimulus (method I); details: for Ki: capsaicin (Cap)
# rat-species vanilloid receptor 1 (VR1/TRPV1), sequence (O35433 whole entry): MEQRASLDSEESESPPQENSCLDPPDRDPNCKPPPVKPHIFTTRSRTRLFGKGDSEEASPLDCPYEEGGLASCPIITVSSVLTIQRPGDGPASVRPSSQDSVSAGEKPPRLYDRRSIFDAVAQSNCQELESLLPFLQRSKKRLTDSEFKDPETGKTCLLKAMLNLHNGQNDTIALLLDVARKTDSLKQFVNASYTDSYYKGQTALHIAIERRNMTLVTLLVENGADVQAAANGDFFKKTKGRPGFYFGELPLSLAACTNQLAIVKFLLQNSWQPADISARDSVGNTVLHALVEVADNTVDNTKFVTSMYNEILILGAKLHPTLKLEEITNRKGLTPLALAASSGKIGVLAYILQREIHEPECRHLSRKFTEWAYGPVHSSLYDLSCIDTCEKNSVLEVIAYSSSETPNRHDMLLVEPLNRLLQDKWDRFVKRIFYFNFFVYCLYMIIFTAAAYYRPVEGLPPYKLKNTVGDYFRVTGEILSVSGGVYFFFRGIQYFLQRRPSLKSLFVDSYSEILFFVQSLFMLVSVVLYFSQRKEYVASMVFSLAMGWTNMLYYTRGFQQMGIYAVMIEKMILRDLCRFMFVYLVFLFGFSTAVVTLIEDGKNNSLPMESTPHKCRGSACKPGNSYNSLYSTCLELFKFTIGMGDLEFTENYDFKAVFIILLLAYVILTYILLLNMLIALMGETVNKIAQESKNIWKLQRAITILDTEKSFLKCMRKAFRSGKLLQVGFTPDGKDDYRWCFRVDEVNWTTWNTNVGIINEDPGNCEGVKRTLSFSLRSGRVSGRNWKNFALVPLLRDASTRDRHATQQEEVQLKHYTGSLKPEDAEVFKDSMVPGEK
# Description: The agonistic or antagonistic effect of the substances to be tested on the rat-species vanilloid receptor 1 (VR1/TRPV1) can be determined using the following assay. In this assay, the influx of Ca^2+ through the receptor channel is quantified with the aid of a Ca^2+-sensitive dye (type Fluo-4, Molecular Probes Europe BV, Leiden, the Netherlands) in a fluorescent imaging plate reader (FLIPR, Molecular Devices, Sunnyvale, USA).
# Complete medium: 50 ml HAMS F12 nutrient mixture (Gibco Invitrogen GmbH, Karlsruhe, Germany) with
# 10% by volume of FCS (foetal calf serum, Gibco Invitrogen GmbH, Karlsruhe, Germany, heat-inactivated);
# 2 mM L-glutamine (Sigma, Munich, Germany);
# 1% by weight of AA solution (antibiotic/antimyotic solution, PAA, Pasching, Austria) and 25 ng/ml NGF medium (2.5 S, Gibco Invitrogen GmbH, Karlsruhe, Germany)
# Cell culture plate: Poly-D-lysine-coated, black 96-well plates having a clear base (96-well black/clear plate, BD Biosciences, Heidelberg, Germany) are additionally coated with laminin (Gibco Invitrogen GmbH, Karlsruhe, Germany), the laminin being diluted with PBS (Ca—Mg-free PBS, Gibco Invitrogen GmbH, Karlsruhe, Germany) to a concentration of 100 μg/ml. Aliquots having a laminin concentration of 100 μg/ml are removed and stored at −20° C. The aliquots are diluted with PBS in a ratio of 1:10 to 10 μg/ml of laminin and respectively 50 μL of the solution are pipetted into a recess in the cell culture plate. The cell culture plates are incubated for at least two hours at 37° C., the excess solution is removed by suction and the recesses are each washed twice with PBS. The coated cell culture plates are stored with excess PBS which is not removed until just before the feeding of the cells.
# The vertebral column is removed from decapitated rats and placed immediately into cold HBSS buffer (Hank's buffered saline solution, Gibco Invitrogen GmbH, Karlsruhe, Germany), i.e. buffer located in an ice bath, mixed with 1% by volume (percent by volume) of an AA solution (antibiotic/antimyotic solution, PAA, Pasching, Austria). The vertebral column is cut longitudinally and removed together with fasciae from the vertebral canal. Subsequently, the dorsal root ganglia (DRG) are removed and again stored in cold HBSS buffer mixed with 1% by volume of an AA solution. The DRG, from which all blood remnants and spinal nerves have been removed, are transferred in each case to 500 μL of cold type 2 collagenase (PAA, Pasching, Austria) and incubated for 35 minutes at 37° C. After the addition of 2.5% by volume of trypsin (PAA, Pasching, Austria), incubation is continued for 10 minutes at 37° C. After complete incubation, the enzyme solution is carefully pipetted off and 500 μL of complete medium are added to each of the remaining DRG. […] The contents of each Falcon tube are respectively filtered through a 70 μm Falcon filter element and centrifuged for 10 minutes at 1,200 rpm and RT. The resulting pellet is respectively taken up in 250 μL of complete medium and the cell count is determined.
# The number of cells in the suspension is set to 3×10^5 per ml and 150 μL of this suspension are in each case introduced into a recess in the cell culture plates coated as described hereinbefore. […] Subsequently, the cells are loaded with 2 μM of Fluo-4 and 0.01% by volume of Pluronic F127 (Molecular Probes Europe BV, Leiden, the Netherlands) in HBSS buffer (Hank's buffered saline solution, Gibco Invitrogen GmbH, Karlsruhe, Germany) for 30 min at 37° C., washed 3 times with HBSS buffer and after further incubation for 15 minutes at RT used for Ca^2+ measurement in a FLIPR assay. The Ca^2+-dependent fluorescence is in this case measured before and after the addition of substances (λex=488 nm, λem=540 nm). Quantification is carried out by measuring the highest fluorescence intensity (FC, fluorescence counts) over time.
# The FLIPR protocol consists of 2 substance additions.
Compound,IC50 (human being) hVR1 pH: result in words (NE / AG) [1],Ki [2] [nM],Ki [3] [nM],also measured
"COc1cc(C(C)C(=O)NCc2cc(C(C)(C)C)nn2-c2cccc(Cl)c2)ccc1NS(C)(=O)=O (stereo not shown) [Example 27, N-((3-tert-butyl-1-(3-chlorophenyl)-1H-pyrazol-5-yl)methyl)-2-(3-methoxy-4-(methylsulphonamido)phenyl)propanamide]",NE,2.2,1.2,
"C[C@@H](C(=O)NCc1cc(C(F)(F)F)nn1-c1ccc(Cl)cc1)c1ccc(NS(C)(=O)=O)c(F)c1 [Example 22, (R)-N-((1-(4-chlorophenyl)-3-(trifluoromethyl)-1H-pyrazol-5-yl)methyl)-2-(3-fluoro-4-(methylsulphonamido)phenyl)propanamide]",,31.7,42.7,inhibition at 10 µM [1]: 42%
"CC(C(=O)NCc1cc(C(C)(C)C)nn1-c1cccc(Cl)c1)c1ccc(N2CCCS2(=O)=O)c(F)c1 (stereo not shown) [Example 55, N-((3-tert-butyl-1-(3-chlorophenyl)-1H-pyrazol-5-yl)methyl)-2-[4-(1,1-dioxidoisothiazolidin-2-yl)-3-fluorophenyl]propanamide]",NE,114,,
"COc1ccc(-n2nc(C(C)(C)C)cc2CNC(=O)C(C)c2ccc(NS(C)(=O)=O)c(F)c2)cc1 (stereo not shown) [Example 20, N-((3-tert-butyl-1-(4-methoxyphenyl)-1H-pyrazol-5-yl)methyl)-2-(3-fluoro-4-(methylsulphonamido)phenyl)propanamide]",NE,,2830,"inhibition at 1 µM ([2]; CHO-K1, read-out: Ki (human being) inhibition (as a percentage) @ 1 μM, capsaicin, inhibition determined at 1 μM): 55%"
"CC(C(=O)NCc1cc(C(C)(C)C)n[nH]1)c1ccc(NS(C)(=O)=O)c(F)c1 (stereo not shown) [Example 1, N-((3-tert-butyl-1H-pyrazol-5-yl)methyl)-2-(3-fluoro-4-(methylsulphonamido)phenyl)propanamide]",NE,,,"Ki (human being) Cap: result in words (NE / AG) [2]: NE; inhibition at 5 µM ([3]; read-out: Ki (rat) Cap: inhibition (as a percentage) @ 5 μM, capsaicin, inhibition determined at 5 μM): 25%"
"Cc1ccc(-n2nc(C(C)(C)C)cc2CNC(=O)C(C)c2ccc(NS(C)(=O)=O)c(F)c2)cc1 (stereo not shown) [Example 12, N-((3-tert-butyl-1-p-tolyl-1H-pyrazol-5-yl)methyl)-2-(3-fluoro-4-(methylsulphonamido)phenyl)propanamide]",,,,inhibition at 10 µM [1]: 40%
"C[C@H](C(=O)NCc1cc(C(C)(C)C)nn1-c1cccc(Cl)c1)c1ccc(NS(C)(=O)=O)c(F)c1 [Example 17, (S)-N-((3-tert-butyl-1-(3-chlorophenyl)-1H-pyrazol-5-yl)methyl)-2-(3-fluoro-4-(methylsulphonamido)phenyl)propanamide]",,,,inhibition at 10 µM [1]: 37%
"CC(C(=O)NCc1cc(C(C)(C)C)nn1-c1ccc(C(C)(C)C)cc1)c1ccc(NS(C)(=O)=O)c(F)c1 (stereo not shown) [Example 13, N-((3-tert-butyl-1-(4-tert-butylphenyl)-1H-pyrazol-5-yl)methyl)-2-(3-fluoro-4-(methylsulphonamido)phenyl)propanamide]",,75.2,25.9,
"CC(C(=O)NCc1cc(C(F)(F)F)nn1-c1cccc(Cl)c1)c1cc(F)cc(F)c1 (stereo not shown) [Example 30, N-((1-(3-chlorophenyl)-3-(trifluoromethyl)-1H-pyrazol-5-yl)methyl)-2-(3,5-difluorophenyl)propanamide]",,6.3,,
"CC(C(=O)NCc1cc(C(F)(F)F)nn1-c1cccc(Cl)c1)c1ccc(C(=O)Nc2ccccc2)c(F)c1 (stereo not shown) [Example 39, 4-(1-((1-(3-chlorophenyl)-3-(trifluoromethyl)-1H-pyrazol-5-yl)methylamino)-1-oxopropan-2-yl)-2-fluoro-N-phenylbenzamide]",,7.2,,
"COc1c(F)cc(NC(=O)NCc2cc(C(C)(C)C)nn2-c2cccc(Cl)c2)cc1F [Example 61, 1-((3-tert-butyl-1-(3-chlorophenyl)-1H-pyrazol-5-yl)methyl)-3-(3,5-difluoro-4-methoxyphenyl)urea]",,,,Ki (human being) Cap: result in words (NE / AG) [2]: AG
"O=C(NCc1cc(C(F)(F)F)nn1-c1cccc(Cl)c1)Nc1ccc(C#CC2CC2)c(F)c1 [Example 139, 1-((1-(3-chlorophenyl)-3-(trifluoromethyl)-1H-pyrazol-5-yl)methyl)-3-(4-(cyclopropylethynyl)-3-fluorophenyl)urea]",,,,Ki (human being) Cap: result in words (NE / AG) [2]: AG
